Among the test systems are MDA-MB-231; K562; T47D; TK-10; MDA-MB-435; SR; OVCAR-4; LOX IMVI; SNB-75; Hs-578T; 786-0; SW-620; HCT-15; SNB-19; HOP-92; SK-MEL-2; KM12; M14; SF-295; SK-OV-3.
Holding throughout (assay): growth of human tumour cells (NCI), 48 h

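All cell lines were grown in 96-well plates and treated with compound for 48 hours. The concentration for 50% growth inhibition is given as GI50.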 Active and inactive are the calls of the source. Rule as the data show it: active = GI50 up to about 1.1 µM and inactive = higher. Where only a bound is given, the exact number is not on record here.

`COc1ccc(-c2c(C#N)c(N)nc3c2CCS(=O)(=O)c2ccccc2-3)cc1`: the GI50 with MDA-MB-231, in the experiment with K562, in the experiment on T47D, with TK-10, in the experiment with MDA-MB-435 and with SR was > 100 µM (inactive) in each case. For the same compound, the GI50 with OVCAR-4 is > 100 µM (inactive); in the experiment on LOX IMVI, > 100 µM (inactive); in the experiment on SNB-75, 38.5 µM (inactive); with Hs-578T, 37.7 µM (inactive); in the experiment with 786-0, 68.2 µM (inactive); in the experiment on SW-620, > 100 µM (inactive). Moreover, the GI50 with HCT-15 is above 100 µM; in the experiment with SNB-19, > 100 µM (inactive); with HOP-92 it was > 100 µM (inactive); in the experiment on SK-MEL-2, > 100 µM (inactive); in the experiment with KM12, > 100 µM (inactive).
For the compound `Cn1c(=O)c2c(nc3sc4nc5ccccc5nc4n32)n(C)c1=O`, the GI50 in the experiment on MDA-MB-231, in the experiment on K562, with T47D, with M14, in the experiment with TK-10 and with MDA-MB-435 was > 100 µM (inactive) each time. The GI50 in the experiment on SR was > 100 µM (inactive); in the experiment on LOX IMVI it was 92.3 µM (inactive); in the experiment with SNB-75, 34.8 µM (inactive); with Hs-578T, > 100 µM (inactive); in the experiment with 786-0, > 100 µM (inactive); with SF-295 it was 49.5 µM (inactive). In addition, the GI50 in the experiment on HCT-15 was above 100 µM; in the experiment with SNB-19, > 100 µM (inactive); in the experiment on SK-OV-3, > 100 µM (inactive); with HOP-92, > 100 µM (inactive); with KM12, > 100 µM (inactive).
With `CC(Br)CN1CCOCC1` (centres undefined), the GI50 in the experiment with MDA-MB-231 is > 100 µM (inactive); in the experiment with K562 it was 50 µM (inactive); in the experiment on T47D, > 100 µM (inactive); with M14, > 100 µM (inactive); in the experiment on TK-10 it was > 100 µM (inactive); in the experiment with MDA-MB-435, > 100 µM (inactive). The GI50 in the experiment with SR is 13.9 µM (inactive); in the experiment with LOX IMVI, > 100 µM (inactive); in the experiment on Hs-578T it was > 100 µM (inactive); in the experiment with 786-0 it was > 100 µM (inactive); in the experiment with SW-620, > 100 µM (inactive); in the experiment on HCT-15, above 100 µM. In addition, the GI50 with SNB-19, in the experiment on SK-OV-3, with HOP-92, with SK-MEL-2 and in the experiment on KM12 was > 100 µM (inactive) throughout.
Take `N#CCCN(CCC#N)CCN(CCN(CCC#N)CCC#N)CCN(CCC#N)CCC#N`: the GI50 in the experiment on MDA-MB-231, in the experiment on K562, in the experiment with T47D, with M14, with TK-10 and with MDA-MB-435 was > 100 µM (inactive) each time. Also, the GI50 in the experiment with SR, with OVCAR-4, in the experiment with LOX IMVI, in the experiment with SNB-75, in the experiment with Hs-578T and with 786-0 was > 100 µM (inactive) in each case. Also, the GI50 in the experiment on SW-620 was > 100 µM (inactive); in the experiment on SF-295, > 100 µM (inactive); in the experiment on HCT-15, above 100 µM; in the experiment on SNB-19, > 100 µM (inactive); with SK-OV-3, > 100 µM (inactive); in the experiment on HOP-92, > 100 µM (inactive). For the same compound, in the experiment with SK-MEL-2, the GI50 was > 100 µM (inactive).
For `COc1ccc(C#CC(=O)O)c(OC)c1`, the GI50 in the experiment with MDA-MB-231, with K562, in the experiment with T47D, in the experiment with M14, in the experiment with TK-10 and with MDA-MB-435 was > 100 µM (inactive) throughout. The GI50 in the experiment on SR, in the experiment on OVCAR-4, in the experiment with LOX IMVI, in the experiment on Hs-578T, in the experiment with 786-0 and in the experiment with SW-620 was > 100 µM (inactive) throughout. For the same compound, the GI50 in the experiment with SF-295 is > 100 µM (inactive); in the experiment on HCT-15 it was above 100 µM; with SNB-19, > 100 µM (inactive); in the experiment on SK-OV-3, > 100 µM (inactive); in the experiment on HOP-92 it was > 100 µM (inactive); in the experiment on SK-MEL-2, > 100 µM (inactive). The GI50 in the experiment on KM12 was > 100 µM (inactive).
Regarding `S=C(Nc1ccc2c(c1)oc1ccccc12)c1cccs1`, the GI50 was 21.7 µM (inactive) in the experiment on MDA-MB-231; 3.37 µM (inactive) with T47D; > 100 µM (inactive) in the experiment on M14; > 100 µM (inactive) in the experiment on TK-10; > 100 µM (inactive) with MDA-MB-435; 4.25 µM (inactive) in the experiment on SR. For the same compound, the GI50 was 30.6 µM (inactive) with OVCAR-4; 7.73 µM (inactive) in the experiment with LOX IMVI; 29.8 µM (inactive) with Hs-578T; 11.3 µM (inactive) in the experiment with 786-0; > 100 µM (inactive) in the experiment with SW-620; 16.6 µM (inactive) in the experiment with SF-295. Also, the GI50 in the experiment with HCT-15 is above 100 µM; in the experiment with SNB-19, 38.1 µM (inactive); in the experiment with SK-OV-3 it was 37.9 µM (inactive); in the experiment with HOP-92, 53.5 µM (inactive); in the experiment with SK-MEL-2 it was > 100 µM (inactive).
As to `O=C1C/C(=C\c2ccccc2)C(=O)c2ccccc2N1`, the GI50 was 23.8 µM (inactive) in the experiment with MDA-MB-231; 28.2 µM (inactive) with T47D; 23.2 µM (inactive) with M14; 32.9 µM (inactive) with TK-10; 23.3 µM (inactive) with MDA-MB-435; 42.8 µM (inactive) with SR. In addition, the GI50 was 20 µM (inactive) in the experiment on OVCAR-4; 20.6 µM (inactive) with LOX IMVI; 60.1 µM (inactive) in the experiment with Hs-578T; 19.5 µM (inactive) in the experiment with 786-0; 19.5 µM (inactive) with SW-620; 17.4 µM (inactive) with SF-295. Further, the GI50 in the experiment with HCT-15 was 24.7 µM; with SNB-19, 14.9 µM (inactive); with SK-OV-3, 35.2 µM (inactive); with HOP-92, 29.9 µM (inactive); in the experiment on SK-MEL-2 it was 28.5 µM (inactive); in the experiment on KM12, 22.6 µM (inactive).
Regarding `Cc1nn(CN2CCN(C)CC2)c(=S)n1/N=C/c1ccc(-c2ccc(Cl)cc2Cl)o1`, the GI50 with MDA-MB-231 is 63.8 µM (inactive); with K562 it was 50.8 µM (inactive); in the experiment with T47D, 21.2 µM (inactive); in the experiment on M14 it was > 100 µM (inactive); in the experiment on TK-10, 43.9 µM (inactive); with MDA-MB-435 it was 36.1 µM (inactive). The GI50 was 37 µM (inactive) with SR; 37.4 µM (inactive) in the experiment on OVCAR-4; 60.7 µM (inactive) with LOX IMVI; > 100 µM (inactive) with Hs-578T; 50.1 µM (inactive) with 786-0; 42.7 µM (inactive) in the experiment with SW-620. For the same compound, the GI50 was 47.2 µM in the experiment with HCT-15; > 100 µM (inactive) with SNB-19; > 100 µM (inactive) with SK-OV-3; > 100 µM (inactive) in the experiment with HOP-92; > 100 µM (inactive) in the experiment on SK-MEL-2; > 100 µM (inactive) in the experiment on KM12.
Turning to `O=C(Nc1ccc(Cl)c(Cl)c1)OCCN1c2ccccc2Sc2ccccc21`, the GI50 in the experiment on MDA-MB-231, with K562, with T47D, in the experiment with M14, in the experiment with TK-10 and in the experiment with MDA-MB-435 was > 10 µM (inactive) in each case. In addition, the GI50 in the experiment with SR, with OVCAR-4, in the experiment on LOX IMVI, in the experiment on SNB-75, with Hs-578T and in the experiment on 786-0 was > 10 µM (inactive) throughout. The GI50 in the experiment with SW-620 is > 10 µM (inactive); in the experiment on SF-295, > 10 µM (inactive); with HCT-15, above 10 µM; with SNB-19, > 10 µM (inactive); in the experiment on SK-OV-3, > 10 µM (inactive); in the experiment on HOP-92, > 10 µM (inactive). Besides, the GI50 in the experiment on KM12 was > 10 µM (inactive).
Turning to `COCCCNc1c2ccccc2nc2ccccc12`, the GI50 is 3.25 µM (inactive) in the experiment on MDA-MB-231; 3.23 µM (inactive) with K562; 2.64 µM (inactive) with T47D; 2.01 µM (inactive) in the experiment on M14; 5.62 µM (inactive) in the experiment on TK-10; 3.85 µM (inactive) with MDA-MB-435. Also, the GI50 in the experiment on SR was 2.86 µM (inactive); in the experiment on OVCAR-4, 2.64 µM (inactive); with LOX IMVI, 2.22 µM (inactive); with Hs-578T, 2.78 µM (inactive); in the experiment on 786-0 it was 3.57 µM (inactive); with SW-620, 2.44 µM (inactive). Besides, the GI50 with SF-295 was 3.61 µM (inactive); in the experiment with HCT-15, 1.3 µM; in the experiment on SNB-19 it was 3.09 µM (inactive); in the experiment on SK-OV-3 it was 2.78 µM (inactive); with HOP-92 it was 3.58 µM (inactive); in the experiment with SK-MEL-2, 2.17 µM (inactive). In the experiment on KM12, the GI50 was 4.39 µM (inactive).
With `N#CC1=C(N)C(C#N)(C#N)C(c2ccc(F)cc2)C=C1C1CC1` (centres undefined), the GI50 in the experiment on MDA-MB-231 was 16.5 µM (inactive); with K562, 6.03 µM (inactive); in the experiment on T47D it was 12.1 µM (inactive); in the experiment with M14, 4.21 µM (inactive); in the experiment on TK-10, 15.5 µM (inactive); with MDA-MB-435 it was 3.22 µM (inactive). In addition, the GI50 was 3.27 µM (inactive) in the experiment on SR; 3.94 µM (inactive) with LOX IMVI; 6 µM (inactive) in the experiment on SNB-75; 16.5 µM (inactive) in the experiment on Hs-578T; 9.84 µM (inactive) with 786-0; 6.95 µM (inactive) in the experiment on SW-620. Besides, the GI50 is 11.2 µM (inactive) with SF-295; 9.77 µM with HCT-15; 13.2 µM (inactive) in the experiment on SNB-19; 8.93 µM (inactive) with SK-OV-3; 11.9 µM (inactive) with HOP-92; 6.52 µM (inactive) in the experiment with SK-MEL-2. Moreover, in the experiment on KM12, the GI50 was 4.14 µM (inactive).
